For series [1], the system named is apoA1 mRNA. As to conditions: HepG2 cells; Haghpassand et al. 1995; cited from earlier work.
The test system of series [2] is apoA1 mRNA. The series is described as follows: apoA1 mRNA by RT-qPCR in transfected HepG2 cells. Type of series: cell-based, human. As to conditions: for apoA1 mRNA levels: individual NRIP1 Dicer substrate dsiRNA duplexes (FIG. 8). The text has this:
Pools of siRNAs that were targeted to NRIP1 (#27) and 32 other transcription modulators were transfected into cultured HepG2 cell along with experimental controls apoA1 siRNA (siApoA1), siRNA non-targeting control (siNT) and transfection media without siRNA (HepG2). […] Each siRNA was designed and synthesized by Dharmacon to interact in a sequence specific manner with the target mRNA and suppress gene expression. For NRIP1, the following siRNA duplexes were used based on the NRIP1 sequence found under GenBank Accession no. NM_173440.
Cultured human hepatoma cell line HepG2 cells were seeded in 6-well plates at a density of 4E5 (i.e., 4×10^5) cells/well in antibiotic free 10% FBS/MEME and cultured for 16 hours. siRNA (20 μM) was prepared by diluting to 2 μM with buffer. To that, equal amounts Opti-MEM medium was added, mixed and kept at room temperature (RT) for 5 minutes. Transfection lipid was prepared using DharmaFECT 4 transfection reagent X25 times diluted with Opti-MEM medium (4 μL/100 medium), mixed and kept at RT for 5 minutes. siRNA and transfection lipid were complexed by mixing equal volumes and incubated for 20 minutes at RT. […]
Forty-eight hours post transfection, medium was removed from transfected HepG2 culture and assessed for secreted apoA1 levels using a human apoA1 sandwich ELISA (MabTech) as described by the manufacturer. […]
HepG2 cells were transfected with varying concentrations of pooled NRIP1 siRNA as described in Example 1, except that 24 hours post transfection 10 μM 9 cis-retinoic acid was added to the growth medium. Cells were harvested 24 hours later and apoA1 and NRIP1 mRNA levels measured as previously described. […]
HepG2 cells were transfected with four individual NRIP1 siRNA duplexes at a concentration of 100 nM or a pool of all four siRNAs at a final concentration 100 nM following the protocol previously described. […] In FIG. 6, expression levels of NRIP1 gene expression were similarly evaluated. […]

A further series concerns NRIP1 target mRNA. Description: NRIP1 mRNA by RT-qPCR in transfected HepG2 cells. The series is classed as cell-based, human. The settings on record: for NRIP1 gene expression (suppression): individual siRNA duplexes 100 nM, vs siNT and lipid controls (FIG. 6); for NRIP1 target gene expression, dose response: 4-fold dilutions from 100 nM to 1.56 nM (FIG. 7). On the procedure:
Cultured human hepatoma cell line HepG2 cells were seeded in 6-well plates at a density of 4E5 (i.e., 4×10^5) cells/well in antibiotic free 10% FBS/MEME and cultured for 16 hours. siRNA (20 μM) was prepared by diluting to 2 μM with buffer. To that, equal amounts Opti-MEM medium was added, mixed and kept at room temperature (RT) for 5 minutes. Transfection lipid was prepared using DharmaFECT 4 transfection reagent X25 times diluted with Opti-MEM medium (4 μL/100 medium), mixed and kept at RT for 5 minutes. siRNA and transfection lipid were complexed by mixing equal volumes and incubated for 20 minutes at RT. Cultured HepG2 cells in 6-sell plates were changed into fresh antibiotic free 10% FBS/MEME (1.6 mL/well) and 400 complexed siRNA was added to each well to a final concentration of 100 nM and incubated for 48 hrs.
HepG2 cells were transfected with varying concentrations of pooled NRIP1 siRNA as described in Example 1, except that 24 hours post transfection 10 μM 9 cis-retinoic acid was added to the growth medium. Cells were harvested 24 hours later and apoA1 and NRIP1 mRNA levels measured as previously described. RT-qPCR was performed as described (Zhu et al., Analytical Biochemistry 345:102-109 (2005)) using the following NRIP1 specific primer/probes:
HepG2 cells were transfected with four individual NRIP1 siRNA duplexes at a concentration of 100 nM or a pool of all four siRNAs at a final concentration 100 nM following the protocol previously described. Following isolation of total RNA, RT-qPCR was performed for apoA1 and NRIP1 gene expression. FIG. 5 compared apoA1 mRNA gene expression for siRNA samples to the siNT and lipid controls. In FIG. 6, expression levels of NRIP1 gene expression were similarly evaluated.
The differential effectiveness of individual sequence specific RNAi molecules to inhibit gene expression is well documented (Soutschek et al., Nature 432: 173-178 (2004)). […] The NRIP1 siRNA #5 and #8 were compare using 4-fold dilutions from 100 nM to 1.56 nM.

Consider 6 molecules from patent publication US8257921B1, “NRIP1 regulation of apolipoprotein A1” (Schering Corporation, priority 2008, dated 2012).

`CC1=C(/C=C/C(C)=C\C=C\C(C)=C\C(=O)O)C(C)(C)CCC1` [9CRA, 9-cis retinoic acid]: the “endogenous apoA1 gene expression” value in the series with apoA1 mRNA [1] was “stimulates”.
Consider “oligo #7: NRIP1 siRNA duplex: sense GGACUGGAAUGCAGCAAAGUU (SEQ ID NO: 14), antisense 5′P-CUUUGCUGCAUUCCAGUCCUU (SEQ ID NO: 15) (5' phosphate on antisense, further chemistry not given here)”, for which, in the series on apoA1 mRNA [2] (individual siRNA duplexes 100 nM, vs siNT and lipid controls (FIG. 5)), the “apoA1 mRNA gene expression (induction)” value was “least effective”. In addition, the “NRIP1 gene expression (suppression)” value in the series with NRIP1 target mRNA is “least effective”.
“dsi#27-1: NRIP1 Dicer substrate RNAi duplex (IDT): sense 5′-AGACUAUACCUAAGCCAAUGAAUGG, antisense 5′-CCAUUCAUUGGCUUAGGAUAGUCUGG”: the “apoA1 mRNA levels” value with apoA1 mRNA [2] was “elevated”.
As for “siRNA #8: NRIP1 siRNA duplex: sense AUACGAAUCUUCCUGAUGUUU (SEQ ID NO: 9), antisense 5′P-ACAUCAGGAAGAUUCGUAUUU (SEQ ID NO: 16) (5' phosphate on antisense strand, further chemistry not given here)”, in the series on NRIP1 target mRNA, the “NRIP1 target gene expression, dose response” value was “inhibited better” and the “NRIP1 gene expression (suppression)” value is listed as “most effective”.
With “siRNA #5: NRIP1 siRNA duplex: sense GAAGCGUGCUAACGAUAAAUU (SEQ ID NO: 7), antisense 5′P-UUUAUCGUUAGCACGCUUCUU (SEQ ID NO: 12) (5' phosphate on antisense strand, further chemistry not given here)”, in the series with NRIP1 target mRNA, the “NRIP1 target gene expression, dose response” value is recorded as “inhibited better by siRNA #8 over siRNA #5” and the “NRIP1 gene expression (suppression)” value was “most effective”.
With “dsi#27-2: NRIP1 Dicer substrate RNAi duplex (IDT): sense 5′-AGGAGUCACAGAAAUAAUGAAAUGG, antisense 5′-CCAUUUCAUUAUUUCUGUGACUCCUGU”, in the series on apoA1 mRNA [2], the “apoA1 mRNA levels” value was “elevated”.
